What was measured:
Settings in all cases: incubation time: 72 h
[1] = test system: BT-474; assay: normalised response (% of control), CellTox Green; higher = less cell death (100 = DMSO, 0 = benzethonium chloride kill control)
Summary of the method: (§1)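 Compound was dispensed into 384-well plates at 5 concentrations in 10-fold steps spanning a 10,000-fold range specific to that compound. Breast cancer cell lines were added as 20 µl suspension and left for 72 h before CellTox Green fluorescence (485/520 nm) and then CellTiter-Glo luminescence, read after 10 min at room temperature. Each reported value is the normalised signal at one concentration, with 0.1 % DMSO set at 100 and a positive kill control at 0 on each plate.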

[2] = test system: BT-549; assay: as above
Summary of the method: as §1

[3] = test system: CAL-120; assay: as above
Summary of the method: as §1

[4] = test system: CAL-148; assay: as above
Summary of the method: as §1

[5] = test system: CAL-51; assay: as above
Summary of the method: as §1

[6] = test system: CAL-85-1; assay: as above
Summary of the method: as §1

[7] = test system: DU-4475; assay: as above
Summary of the method: as §1

[8] = test system: HCC1143; assay: as above
Summary of the method: as §1

[9] = test system: HCC1599; assay: as above
Summary of the method: as §1

[10] = test system: HCC1937; assay: as above
Summary of the method: as §1

[11] = test system: HDQ-P1; assay: as above
Summary of the method: as §1

[12] = test system: Hs578T; assay: as above
Summary of the method: as §1

[13] = test system: MDA-MB-231; assay: as above
Summary of the method: as §1

[14] = test system: MDA-MB-436; assay: as above
Summary of the method: as §1

[15] = test system: MDA-MB-453; assay: as above
Summary of the method: as §1

[16] = test system: MDA-MB-468; assay: as above
Summary of the method: as §1

[17] = test system: MFM-223; assay: as above
Summary of the method: as §1

[18] = test system: BT-474; assay: normalised response (% of control), CellTiter-Glo; higher = more viable cells (100 = DMSO, 0 = benzethonium chloride kill control)
Summary of the method: as §1

[19] = test system: BT-549; assay: as above
Summary of the method: as §1

[20] = test system: CAL-120; assay: as above
Summary of the method: as §1

[21] = test system: CAL-148; assay: as above
Summary of the method: as §1

[22] = test system: CAL-51; assay: as above
Summary of the method: as §1

[23] = test system: CAL-85-1; assay: as above
Summary of the method: as §1

[24] = test system: DU-4475; assay: as above
Summary of the method: as §1

[25] = test system: HCC1143; assay: as above
Summary of the method: as §1

[26] = test system: HCC1599; assay: as above
Summary of the method: as §1

[27] = test system: HCC1937; assay: as above
Summary of the method: as §1

[28] = test system: HDQ-P1; assay: as above
Summary of the method: as §1

[29] = test system: Hs578T; assay: as above
Summary of the method: as §1

[30] = test system: MCF-10A; assay: as above
Summary of the method: as §1

[31] = test system: MDA-MB-231; assay: as above
Summary of the method: as §1

[32] = test system: MDA-MB-436; assay: as above
Summary of the method: as §1

[33] = test system: MDA-MB-453; assay: as above
Summary of the method: as §1

[34] = test system: MDA-MB-468; assay: as above
Summary of the method: as §1

[35] = test system: MFM-223; assay: as above
Summary of the method: as §1

[36] = test system: SK-BR-3; assay: as above
Summary of the method: as §1

[37] = test system: MCF-10A; assay: normalised response (% of control), CellTox Green; higher = less cell death (100 = DMSO, 0 = benzethonium chloride kill control)
Summary of the method: as §1

Row | Compound | normalised response [1] [%] | normalised response [2] [%] | normalised response [3] [%] | normalised response [4] [%] | normalised response [5] [%] | normalised response [6] [%] | normalised response [7] [%] | normalised response [8] [%] | normalised response [9] [%] | normalised response [10] [%] | normalised response [11] [%] | normalised response [12] [%] | normalised response [13] [%] | normalised response [14] [%] | normalised response [15] [%] | normalised response [16] [%] | normalised response [17] [%] | normalised response [18] [%] | normalised response [19] [%] | normalised response [20] [%] | normalised response [21] [%] | normalised response [22] [%] | normalised response [23] [%] | normalised response [24] [%] | normalised response [25] [%] | normalised response [26] [%] | normalised response [27] [%] | normalised response [28] [%] | normalised response [29] [%] | normalised response [30] [%] | normalised response [31] [%] | normalised response [32] [%] | normalised response [33] [%] | normalised response [34] [%] | normalised response [35] [%] | normalised response [36] [%] | normalised response [37] [%]
1 | CO[C@H]1C[C@@H]2CC[C@@H](C)[C@@](O)(O2)C(=O)C(=O)N2CCCC[C@H]2C(=O)O[C@H]([C@H](C)C[C@@H]2CC[C@@H](OC(=O)C(C)(CO)CO)[C@H](OC)C2)CC(=O)[C@H](C)/C=C(\C)[C@@H](O)[C@@H](OC)C(=O)[C@H](C)C[C@H](C)/C=C/C=C/C=C/1C [Temsirolimus] (10 nM) | 103 | 134 | 101 | 90.9 | 107 | 95.8 | 95.5 | 84 | 101 | -57.4 | 97.4 | -83.2 | 124 | 102 | 107 | 103 | 75.2 | 83.3 | 55.1 | 67.8 | 62.1 | 55.5 | 67.9 | 74.8 | 63.9 | 109 | 74.4 | 77.4 | 70 | 87.7 | 93 | 79.9 | 53.5 | 62.1 | 70.7 | 60.7 | 
2 | CN1CCC(COc2cnc(-c3cccc(Cn4nc(-c5cccc(C#N)c5)ccc4=O)c3)nc2)CC1 (100 nM) | 97.9 | 149 | 98.9 | 103 | 93.3 | 95.1 | 97.6 | 101 | 110 | 125 | 103 | 110 | 119 | 99.9 | 107 | 157 | 101 | 92.7 | 94 | 95.8 | 100 | 74 | 93.5 | 100 | 93.3 | 102 | 97.7 | 98.9 | 104 | 99.3 | 101 | 93.1 | 85.2 | 90.9 | 90.5 | 82.2 | 102
3 | CC(=O)O[C@]1(C(C)=O)CC[C@H]2[C@@H]3C=C(C)C4=CC(=O)CC[C@]4(C)[C@H]3CC[C@@]21C [Megestrol acetate] (1000 nM) | 97.6 | 108 | 101 | 104 | 115 | 104 | 99.1 | 116 | 96.8 | 58.1 | 106 | 98.8 | 110 | 57.4 | 105 | 141 | 101 | 111 | 109 | 98.2 | 92.4 | 124 | 100 | 102 | 103 | 111 | 110 | 104 | 105 | 121 | 118 | 101 | 95.8 | 95.4 | 96.6 | 93.8 | 103
4 | O=C(c1ccc(C(=O)N2CCC(N3CCCC3)CC2)c(Nc2ccccc2)c1)N1CCC(N2CCCC2)CC1 [UNC1215] (3000 nM) | 96.9 | 85.1 | 99.3 | 99.7 | 114 | 96.8 | 98.5 | 109 | 99.8 | 111 |  |  | 98 | 96.3 | 99.2 | 80.5 | 101 | 95 | 96.9 | 98 | 94.9 | 115 | 94.7 | 98.3 | 93.9 | 107 | 94 | 100 | 95.3 | 108 | 91.2 | 92.8 | 98 | 91.6 | 92.6 | 93.5 | 101
5 | COc1cc(Nc2ncc3c(n2)-c2ccc(Cl)cc2C(c2c(F)cccc2OC)=NC3)ccc1C(=O)O [Alisertib] (1000 nM) | 96 | 76.9 | 96.9 | 53.8 | 17.4 | 93.3 | 92.2 | 85.8 | 96.6 | 122 | 78.2 | 96.3 | 69.1 | 73.5 | 110 | 8.1 | 89.1 | 70.9 | 49.2 | 79.5 | 62.6 | 56.5 | 90.5 | 67.6 | 71.3 | 82.6 | 86.5 | 84.3 | 84.4 | 76.3 | 78 | 62 | 140 | 27.2 | 56.4 | 76 | 108
6 | CCN1CCN(c2ccc(Nc3cc(N(C)C(=O)Nc4c(Cl)c(OC)cc(OC)c4Cl)ncn3)cc2)CC1 [NVP-BGJ398] (100 nM) | 98.1 | 99.1 | 90.8 | 104 | 111 | 108 | 99.3 | 111 | 95.3 | 112 | 73 | 91 | 104 | 99.7 | 103 | 89.7 | 95.7 | 94.5 | 94.3 | 84.7 | 92.6 | 112 | 97.3 | 101 | 97.7 | 102 | 98.8 | 101 | 95.8 | 103 | 96.1 | 93.4 | 104 | 97.1 | 63.3 | 97.5 | 101
7 | CN(C)C/C=C/C(=O)Nc1cc2c(Nc3ccc(F)c(Cl)c3)ncnc2cc1O[C@H]1CCOC1 [Afatinib] (100 nM) | 81.3 | 116 | 101 | 102 | 107 | 55.7 | 101 | 111 | 112 | 135 | 90.9 | 100 | 113 | 87 | 102 | 110 | 101 | 90.6 | 98.5 | 92.9 | 75.1 | 118 | 65.9 | 98.1 | 100 | 94.1 | 89.8 | 64 | 108 | 32.4 | 103 | 98 | 77.3 | 87.2 | 106 | 27.5 | 85.5
